Numbering of substitutions follows the chain as printed. “And” between values parts separate entries of the source, which are not always exact repeats. Equal entries are not always repeated.
Legend:
[1] = biological target: T1, WT RyR1 (Oryctolagus cuniculus, UniProt P11716); test: Time-lapse [Ca2+]ER measurement, HEK293 cells expressing WT RyR1; type: cell-based; conditions: Fig. 5H source data, 4 mM caffeine, single replicates
T1 construct: expressed in transfected cells

[2] = biological target: T2, RyR1 W881A (Oryctolagus cuniculus, UniProt P11716, W882A); test: Time-lapse [Ca2+]ER measurement, HEK293 cells expressing RyR1 W881A; type: cell-based; conditions: 4 mM caffeine; for ER luminal [Ca2+] change (F/F0): Fig. 5H source data, RyR1-W881A, single replicates
T2 construct: expressed in transfected cells
Method: (§1) HEK293 cells stably expressing R-CEPIA1er and RyRs (WT RyR1, RyR1-W881A, RyR1-W995A, RyR1-R2163C, and WT RyR2)[26],[27] were used in this study. Briefly, the cells were seeded at a density of 2 × 10⁴ cells/well in a 96-well black, clear-bottom plate (Corning). Doxycycline (2 µg/mL) was added 12 h after seeding, and the medium was replaced 24 h later with HEPES-buffered Krebs solution (5 mM HEPES, pH 7.4; 140 mM NaCl; 5 mM KCl; 2 mM CaCl₂; 1 mM MgCl₂; and 11 mM glucose). Fluorescence measurements were conducted using a FlexStation 3 fluorometer (Molecular Devices) at 37 °C. The R-CEPIA1er was excited at 560 nm, emitted at 610 nm, and captured every 10 seconds over 300 seconds. Different concentrations of compound, dissolved in buffer containing 1% DMSO, were added 100 s after recording began. The fluorescence changes (F/F₀) were calculated by dividing the average fluorescence of the last 100 seconds (F) by that of the first 100 seconds (F₀). All measurements were performed in triplicate.

[3] = biological target: T3, RyR1-W881A R12 (Homo sapiens, UniProt P21817, W881A); test: ITC, RyR1 R12 W881A; type: binding; conditions: RyR1-W881A R12, no nucleotide
T3 construct: RyR1 854–1054, RyR2 865–1065, RyR3 853–1053; made in house; host or cells: E. coli BL21 (DE3)
T3 sequence (P21817 854-1054 W881A): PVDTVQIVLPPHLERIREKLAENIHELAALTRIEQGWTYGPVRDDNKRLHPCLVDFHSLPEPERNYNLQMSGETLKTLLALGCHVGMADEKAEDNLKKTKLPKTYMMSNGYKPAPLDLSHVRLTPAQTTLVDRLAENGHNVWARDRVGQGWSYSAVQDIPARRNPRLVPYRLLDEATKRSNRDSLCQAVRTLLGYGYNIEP
Method: (§2) The plasmids were subsequently transformed into E. coli BL21 (DE3) cells (NEB, USA) and cultured in Luria-Bertani (LB) media at 37 °C. Protein expression was induced with 0.4 mM isopropyl β-D-thiogalactoside (IPTG) when the optical density (OD)600 reached ~0.8, followed by incubation at 18 °C for 12 h. The cells were harvested via centrifugation at 5,000 × g for 15 min at 4 °C and homogenized in Buffer A (10 mM HEPES, pH 7.4, 250 mM KCl) supplemented with 25 µg/mL DNaseI, 25 µg/mL lysozyme, 1 mM phenylmethylsulfonyl fluoride (PMSF), and 20 mM imidazole. The homogenate was centrifuged at 12,000 × g for 45 min, and the supernatant was filtered through a syringe filter (0.22 µm).
(§3) Purified R12 domain protein from the three RyR isoforms, fused with hexahistidine-tagged MBP (HMT-R12) was dialyzed overnight at 4 °C in ITC buffer (200 mM HEPES, pH 7.4, 150 mM KCl). ITC experiments were performed using a PEAQ-ITC instrument (Malvern, UK) at 25 °C with a stirring speed of 750 rpm. […] For the ternary binding experiments, 500 μM or 5 mM AMP-PCP/ADP was preincubated with both the titrants and titrates. […] The data was fit to a one-site fitting model after background buffer subtraction. The RyR1 R12 mutants were generated using a QuikChange mutagenesis kit (Stratagene) according to the manufacturer’s protocol, with primer sequences listed in Supplementary Table 3.

[4] = test system: WT RyR2; test: Time-lapse [Ca2+]ER measurement, HEK293 cells expressing WT RyR2; type: cell-based; conditions: for ER luminal [Ca2+] change (F/F0): Fig. 5D source data, single replicates
Method: as §1

[5] = biological target: T4, RyR1 W995A (Oryctolagus cuniculus, UniProt P11716, W996A); test: Time-lapse [Ca2+]ER measurement, HEK293 cells expressing RyR1 W995A; type: cell-based; conditions: 4 mM caffeine; for ER luminal [Ca2+] change (F/F0): Fig. 5H source data, RyR1-W995A, single replicates
T4 construct: expressed in transfected cells
Method: as §1

[6] = parameters: method as in PMID 1729917, PMID 2790379; conditions: water-soluble analog compared with DAN; cited from earlier work
[7] = biological target: T5, RyR1-W995A R12 (Homo sapiens, UniProt P21817, W995A); test: ITC, RyR1 R12 W995A; type: binding
T5 construct: RyR1 854–1054, RyR2 865–1065, RyR3 853–1053; made in house; host or cells: E. coli BL21 (DE3)
T5 sequence (P21817 854-1054 W995A): T3 sequence (P21817 854-1054 W881A) with A28W, W142A
Method: as §2, §3

O=C(C[C@@H](NCCCO)C(=O)O)Nc1ccc2ccccc2c1 [RI-2]
ER luminal [Ca2+] change (F/F0) ([1]; RI-2 0.1 uM): 0.9624 and 0.9803 and 0.9793
ER luminal [Ca2+] change (F/F0) ([1]; RI-2 0.3 uM): 0.9865 and 0.9725 and 0.9809
ER luminal [Ca2+] change (F/F0) ([1]; RI-2 1 uM): 1.001 and 1.0002 and 0.9956
ER luminal [Ca2+] change (F/F0) ([1]; RI-2 3 uM): 1.043 and 1.036 and 1.039
ER luminal [Ca2+] change (F/F0) ([1]; RI-2 10 uM): 1.092 and 1.122 and 1.066
ER luminal [Ca2+] change (F/F0) ([1]; RI-2 30 uM): 1.229 and 1.248 and 1.218
ER luminal [Ca2+] change (F/F0) ([1]; RI-2 100 uM): 1.681 and 1.622 and 1.659
ER luminal [Ca2+] change (F/F0) ([2]; RI-2 0.1 uM): 0.9939 and 0.9815 and 1.025
ER luminal [Ca2+] change (F/F0) ([2]; RI-2 0.3 uM): 0.9808 and 0.9609 and 0.9633
ER luminal [Ca2+] change (F/F0) ([2]; RI-2 1 uM): 0.959 and 0.9789 and 1.039
ER luminal [Ca2+] change (F/F0) ([2]; RI-2 3 uM): 0.968 and 1.003 and 1.025
ER luminal [Ca2+] change (F/F0) ([2]; RI-2 10 uM): 0.9988 and 0.9974 and 1.012
ER luminal [Ca2+] change (F/F0) ([2]; RI-2 30 uM): 1.035 and 0.9972 and 1.041
ER luminal [Ca2+] change (F/F0) ([2]; RI-2 100 uM): 0.9975 and 1.115 and 0.9708
inhibitory effect in time-lapse ER Ca2+ measurements ([2]; RyR1 W881A): completely lost
Kd [3]: 292 ± 22.5 µM
No of Sites (N) [3]: 0.94 ± 0.46
ΔH [3]: -10.7 ± 3.83 kcal/mol
−TΔS [3]: 4.71 kcal/mol
ER luminal [Ca2+] change (F/F0) ([4]; RI-2 0.1 uM): 1.012 and 0.991 and 0.9966
ER luminal [Ca2+] change (F/F0) ([4]; RI-2 0.3 uM): 1.053 and 1.031 and 0.9893
ER luminal [Ca2+] change (F/F0) ([4]; RI-2 1 uM): 1.071 and 0.9532 and 1.019
ER luminal [Ca2+] change (F/F0) ([4]; RI-2 3 uM): 0.989 and 1.026 and 1.009
ER luminal [Ca2+] change (F/F0) ([4]; RI-2 10 uM): 1.0308 and 1.04 and 0.9817
ER luminal [Ca2+] change (F/F0) ([4]; RI-2 30 uM): 1.051 and 0.9858 and 1.027
ER luminal [Ca2+] change (F/F0) ([4]; RI-2 100 uM): 1.1169 and 1.011 and 1.1
effect on ER luminal [Ca2+] ([4]; dose-dependent [Ca2+]ER measurements): no significant effect
ER luminal [Ca2+] change (F/F0) ([5]; RI-2 0.1 uM): 1.018 and 1 and 0.9822
ER luminal [Ca2+] change (F/F0) ([5]; RI-2 0.3 uM): 1.035 and 1.023 and 0.9731
ER luminal [Ca2+] change (F/F0) ([5]; RI-2 1 uM): 1.011 and 1.046 and 0.9965
ER luminal [Ca2+] change (F/F0) ([5]; RI-2 3 uM): 1.0547 and 1.017 and 1.01
ER luminal [Ca2+] change (F/F0) ([5]; RI-2 10 uM): 1.05 and 1.027 and 0.98
ER luminal [Ca2+] change (F/F0) ([5]; RI-2 30 uM): 1.073 and 0.9504 and 1.033
ER luminal [Ca2+] change (F/F0) ([5]; RI-2 100 uM): 0.9659 and 1.079 and 1.107
inhibitory effect in time-lapse ER Ca2+ measurements ([5]; RyR1 W995A): completely lost

O=C1CN(/N=C/c2ncc(-c3ccc(Br)cc3)o2)C(=O)N1 [AZU, Azumolene]
Kd [3]: 358 ± 138 µM
No of Sites (N) [3]: 1.04 ± 0.35
ΔH [3]: -35.60 kcal/mol
−TΔS [3]: 30.90 kcal/mol
solubility relative to DAN [6]: approximately 30 fold
binding to RyR1 R12 W995A by ITC ([7]; in the presence of AMP-PCP or ADP): can no longer be detected
binding to RyR1 R12 W995A by ITC ([7]; no nucleotide): completely abolishes
